According to PubChem BioAssay (NCI):
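1) Cells in 96-well plates. 2) Compound, 48 h, 5 concentrations. 3) Linear interpolation between surrounding doses. 4) Unreached endpoint = highest concentration. TGI denotes the concentration required for complete inhibition of growth.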

Legend:
Test in all cases: NCI anticancer screen, dose series, 48 h
786-0 renal = tested on: 786-0 renal
A498 renal = tested on: A498 renal
A549 NSCLC = tested on: A549 NSCLC
ACHN renal = tested on: ACHN renal
BT-549 breast = tested on: BT-549 breast
CAKI-1 renal = tested on: CAKI-1 renal
CCRF-CEM leukemia = tested on: CCRF-CEM leukemia
COLO 205 colon = tested on: COLO 205 colon
DU-145 prostate = tested on: DU-145 prostate
EKVX NSCLC = tested on: EKVX NSCLC
HCC-2998 colon = tested on: HCC-2998 colon
HCT-116 colon = tested on: HCT-116 colon
HCT-15 colon = tested on: HCT-15 colon
HL-60(TB) leukemia = tested on: HL-60(TB) leukemia
HOP-62 NSCLC = tested on: HOP-62 NSCLC
HOP-92 NSCLC = tested on: HOP-92 NSCLC
HS 578T breast = tested on: HS 578T breast
HT29 colon = tested on: HT29 colon
IGROV1 ovarian = tested on: IGROV1 ovarian
K-562 leukemia = tested on: K-562 leukemia
KM12 colon = tested on: KM12 colon
LOX IMVI melanoma = tested on: LOX IMVI melanoma
M14 melanoma = tested on: M14 melanoma
MALME-3M melanoma = tested on: MALME-3M melanoma
MCF7 breast = tested on: MCF7 breast
MDA-MB-231 breast = tested on: MDA-MB-231 breast
MDA-MB-435 = tested on: MDA-MB-435
MDA-N = tested on: MDA-N
MOLT-4 leukemia = tested on: MOLT-4 leukemia
NCI-H226 lung = tested on: NCI-H226 lung
NCI-H23 lung = tested on: NCI-H23 lung
NCI-H460 lung = tested on: NCI-H460 lung
NCI/ADR-RES ovarian = tested on: NCI/ADR-RES ovarian
OVCAR-3 ovarian = tested on: OVCAR-3 ovarian
OVCAR-4 ovarian = tested on: OVCAR-4 ovarian
OVCAR-5 ovarian = tested on: OVCAR-5 ovarian
OVCAR-8 ovarian = tested on: OVCAR-8 ovarian
PC-3 prostate = tested on: PC-3 prostate
SF-295 CNS = tested on: SF-295 CNS
SF-539 CNS = tested on: SF-539 CNS
SK-MEL-2 melanoma = tested on: SK-MEL-2 melanoma
SK-MEL-28 melanoma = tested on: SK-MEL-28 melanoma
SK-MEL-5 melanoma = tested on: SK-MEL-5 melanoma
SK-OV-3 ovarian = tested on: SK-OV-3 ovarian
SN12C renal = tested on: SN12C renal
SNB-19 CNS = tested on: SNB-19 CNS
SNB-75 CNS = tested on: SNB-75 CNS
SW-620 colon = tested on: SW-620 colon
T-47D breast = tested on: T-47D breast
TK-10 renal = tested on: TK-10 renal
U251 CNS = tested on: U251 CNS
UACC-257 melanoma = tested on: UACC-257 melanoma
UACC-62 melanoma = tested on: UACC-62 melanoma
UO-31 renal = tested on: UO-31 renal
NCI-H522 lung = tested on: NCI-H522 lung
RPMI-8226 leukemia = tested on: RPMI-8226 leukemia
RXF 393 renal = tested on: RXF 393 renal
SF-268 CNS = tested on: SF-268 CNS

For `O=C(CCN1CCOCC1)c1ccc(Oc2ccc(F)cc2)cc1`, the TGI (786-0 renal) was 30.8 µM, the TGI (A498 renal) was > 100 µM and the TGI (A549 NSCLC) was > 100 µM. The TGI (ACHN renal) was 32.1 µM, the TGI (BT-549 breast) was 35.9 µM and the TGI (CAKI-1 renal) was 33 µM. The TGI (CCRF-CEM leukemia) was 57.1 µM, the TGI (COLO 205 colon) was 47 µM and the TGI (DU-145 prostate) was > 100 µM. For the same molecule, the TGI (EKVX NSCLC) was 36.9 µM, the TGI (HCC-2998 colon) was > 100 µM and the TGI (HCT-116 colon) was 44.2 µM. The TGI (HCT-15 colon) was 36.5 µM, the TGI (HL-60(TB) leukemia) was 78.7 µM and the TGI (HOP-62 NSCLC) was > 100 µM. The TGI (HOP-92 NSCLC) was 49.5 µM, the TGI (HS 578T breast) was 40.8 µM and the TGI (HT29 colon) was 34.2 µM. It also gave a TGI (IGROV1 ovarian) of 39.4 µM, a TGI (K-562 leukemia) of 51.4 µM and a TGI (KM12 colon) of 32.6 µM. It also gave a TGI (LOX IMVI melanoma) of 48.5 µM, a TGI (M14 melanoma) of 38.3 µM and a TGI (MALME-3M melanoma) of 40.9 µM. The TGI (MCF7 breast) was 40.4 µM, the TGI (MDA-MB-231 breast) was 39 µM and the TGI (MDA-MB-435) was > 100 µM. It also gave a TGI (MDA-N) of 52.3 µM, a TGI (MOLT-4 leukemia) of 55.2 µM and a TGI (NCI-H226 lung) of 78 µM. For the same molecule, the TGI (NCI-H23 lung) was 70.4 µM, the TGI (NCI-H460 lung) was > 100 µM and the TGI (NCI/ADR-RES ovarian) was 69 µM. For the same molecule, the TGI (OVCAR-3 ovarian) was 50.7 µM, the TGI (OVCAR-4 ovarian) was > 100 µM and the TGI (OVCAR-5 ovarian) was 54.2 µM. The TGI (OVCAR-8 ovarian) was 41.7 µM, the TGI (PC-3 prostate) was 34.2 µM and the TGI (SF-295 CNS) was > 100 µM. It also gave a TGI (SF-539 CNS) of 38.7 µM, a TGI (SK-MEL-2 melanoma) of 57.1 µM and a TGI (SK-MEL-28 melanoma) of 52.2 µM. The TGI (SK-MEL-5 melanoma) was > 100 µM, the TGI (SK-OV-3 ovarian) was > 100 µM and the TGI (SN12C renal) was > 100 µM. For the same molecule, the TGI (SNB-19 CNS) was > 100 µM, the TGI (SNB-75 CNS) was 46.2 µM and the TGI (SW-620 colon) was 62.6 µM. The TGI (T-47D breast) was 42.6 µM, the TGI (TK-10 renal) was 32.5 µM and the TGI (U251 CNS) was > 100 µM. For the same molecule, the TGI (UACC-257 melanoma) was 32.9 µM, the TGI (UACC-62 melanoma) was 37 µM and the TGI (UO-31 renal) was 38.3 µM.
`Oc1ccc(C=NCC2CCCN3CCCCC23)cc1` (stereo not drawn) was tested, and the TGI (786-0 renal) was 36.7 µM, the TGI (A498 renal) was 83.9 µM and the TGI (A549 NSCLC) was > 62.8 µM. It also gave a TGI (ACHN renal) of 34.9 µM, a TGI (BT-549 breast) of 61.5 µM and a TGI (CAKI-1 renal) of 39.5 µM. The TGI (COLO 205 colon) was > 66.7 µM, the TGI (DU-145 prostate) was 31.3 µM and the TGI (EKVX NSCLC) was > 75.4 µM. For the same molecule, the TGI (HCC-2998 colon) was 40.4 µM, the TGI (HCT-116 colon) was 49.5 µM and the TGI (HCT-15 colon) was 63 µM. For the same molecule, the TGI (HOP-62 NSCLC) was > 75.1 µM, the TGI (HOP-92 NSCLC) was 67.3 µM and the TGI (HS 578T breast) was 85.5 µM. For the same molecule, the TGI (HT29 colon) was 30.7 µM, the TGI (IGROV1 ovarian) was > 67.8 µM and the TGI (K-562 leukemia) was > 100 µM. For the same molecule, the TGI (KM12 colon) was 35.3 µM, the TGI (LOX IMVI melanoma) was > 100 µM and the TGI (M14 melanoma) was > 57.6 µM. For the same molecule, the TGI (MALME-3M melanoma) was 74.1 µM, the TGI (MCF7 breast) was > 100 µM and the TGI (MDA-MB-231 breast) was 74.8 µM. The TGI (MDA-MB-435) was 27 µM, the TGI (MDA-N) was 39.4 µM and the TGI (MOLT-4 leukemia) was > 100 µM. The TGI (NCI-H226 lung) was 58.4 µM, the TGI (NCI-H23 lung) was > 62 µM and the TGI (NCI-H460 lung) was 73.4 µM. The TGI (NCI-H522 lung) was 47.3 µM, the TGI (NCI/ADR-RES ovarian) was > 100 µM and the TGI (OVCAR-3 ovarian) was > 69.3 µM. For the same molecule, the TGI (OVCAR-4 ovarian) was 42.3 µM, the TGI (OVCAR-5 ovarian) was > 59.5 µM and the TGI (OVCAR-8 ovarian) was > 100 µM. For the same molecule, the TGI (PC-3 prostate) was > 100 µM, the TGI (RPMI-8226 leukemia) was 86 µM and the TGI (RXF 393 renal) was 43.9 µM. The TGI (SF-268 CNS) was > 68.5 µM, the TGI (SF-295 CNS) was > 76.9 µM and the TGI (SF-539 CNS) was > 100 µM. It also gave a TGI (SK-MEL-2 melanoma) of 49.4 µM, a TGI (SK-MEL-28 melanoma) of 38.6 µM and a TGI (SK-MEL-5 melanoma) of 51.4 µM. The TGI (SK-OV-3 ovarian) was 97.4 µM, the TGI (SN12C renal) was 41.9 µM and the TGI (SNB-19 CNS) was 63.3 µM. For the same molecule, the TGI (SNB-75 CNS) was > 96.5 µM, the TGI (T-47D breast) was 71.3 µM and the TGI (TK-10 renal) was 55.5 µM. The TGI (U251 CNS) was 34.8 µM, the TGI (UACC-257 melanoma) was 62.3 µM and the TGI (UACC-62 melanoma) was > 69.5 µM. For the same molecule, the TGI (UO-31 renal) was > 56.7 µM.
In the case of `CC(=O)OCCn1c(Cc2ccc(C)cc2)nn(C(C)=O)c1=O`, the TGI (786-0 renal) is reported as > 100 µM, the TGI (A498 renal) is reported as > 100 µM and the TGI (A549 NSCLC) is reported as > 100 µM. For the same molecule, the TGI (ACHN renal) was > 100 µM, the TGI (BT-549 breast) was > 100 µM and the TGI (CAKI-1 renal) was > 100 µM. The TGI (COLO 205 colon) was > 100 µM, the TGI (DU-145 prostate) was > 100 µM and the TGI (EKVX NSCLC) was > 100 µM. The TGI (HCC-2998 colon) was > 100 µM, the TGI (HCT-116 colon) was > 100 µM and the TGI (HCT-15 colon) was > 100 µM. The TGI (HL-60(TB) leukemia) was > 100 µM, the TGI (HOP-92 NSCLC) was > 100 µM and the TGI (HS 578T breast) was > 100 µM. The TGI (HT29 colon) was > 100 µM, the TGI (IGROV1 ovarian) was > 100 µM and the TGI (K-562 leukemia) was > 100 µM. For the same molecule, the TGI (KM12 colon) was > 100 µM, the TGI (LOX IMVI melanoma) was > 100 µM and the TGI (M14 melanoma) was > 100 µM. The TGI (MALME-3M melanoma) was > 100 µM, the TGI (MCF7 breast) was > 100 µM and the TGI (MDA-MB-231 breast) was > 100 µM. For the same molecule, the TGI (MDA-MB-435) was > 100 µM, the TGI (MDA-N) was > 100 µM and the TGI (MOLT-4 leukemia) was > 100 µM. For the same molecule, the TGI (NCI-H226 lung) was > 100 µM, the TGI (NCI-H23 lung) was > 100 µM and the TGI (NCI-H460 lung) was > 100 µM. For the same molecule, the TGI (NCI-H522 lung) was > 100 µM, the TGI (NCI/ADR-RES ovarian) was > 100 µM and the TGI (OVCAR-3 ovarian) was > 100 µM. For the same molecule, the TGI (OVCAR-4 ovarian) was > 100 µM, the TGI (OVCAR-5 ovarian) was > 100 µM and the TGI (OVCAR-8 ovarian) was > 100 µM. For the same molecule, the TGI (PC-3 prostate) was > 100 µM, the TGI (RPMI-8226 leukemia) was > 100 µM and the TGI (SF-268 CNS) was > 100 µM. For the same molecule, the TGI (SF-295 CNS) was > 100 µM, the TGI (SF-539 CNS) was > 100 µM and the TGI (SK-MEL-2 melanoma) was > 100 µM. For the same molecule, the TGI (SK-MEL-28 melanoma) was > 100 µM, the TGI (SK-MEL-5 melanoma) was > 100 µM and the TGI (SK-OV-3 ovarian) was > 100 µM. For the same molecule, the TGI (SN12C renal) was > 100 µM, the TGI (SNB-19 CNS) was > 100 µM and the TGI (SW-620 colon) was > 100 µM. For the same molecule, the TGI (T-47D breast) was > 100 µM, the TGI (TK-10 renal) was > 100 µM and the TGI (U251 CNS) was > 100 µM. For the same molecule, the TGI (UACC-257 melanoma) was > 100 µM, the TGI (UACC-62 melanoma) was > 100 µM and the TGI (UO-31 renal) was > 100 µM.
